The values that follow come from publication PMC6548519 (Nature chemical biology, 2019).

The target in one experiment is T1, FAAH-4 (Caenorhabditis elegans, UniProt Q9U217).
T1 sequence (Q9U217 1-647): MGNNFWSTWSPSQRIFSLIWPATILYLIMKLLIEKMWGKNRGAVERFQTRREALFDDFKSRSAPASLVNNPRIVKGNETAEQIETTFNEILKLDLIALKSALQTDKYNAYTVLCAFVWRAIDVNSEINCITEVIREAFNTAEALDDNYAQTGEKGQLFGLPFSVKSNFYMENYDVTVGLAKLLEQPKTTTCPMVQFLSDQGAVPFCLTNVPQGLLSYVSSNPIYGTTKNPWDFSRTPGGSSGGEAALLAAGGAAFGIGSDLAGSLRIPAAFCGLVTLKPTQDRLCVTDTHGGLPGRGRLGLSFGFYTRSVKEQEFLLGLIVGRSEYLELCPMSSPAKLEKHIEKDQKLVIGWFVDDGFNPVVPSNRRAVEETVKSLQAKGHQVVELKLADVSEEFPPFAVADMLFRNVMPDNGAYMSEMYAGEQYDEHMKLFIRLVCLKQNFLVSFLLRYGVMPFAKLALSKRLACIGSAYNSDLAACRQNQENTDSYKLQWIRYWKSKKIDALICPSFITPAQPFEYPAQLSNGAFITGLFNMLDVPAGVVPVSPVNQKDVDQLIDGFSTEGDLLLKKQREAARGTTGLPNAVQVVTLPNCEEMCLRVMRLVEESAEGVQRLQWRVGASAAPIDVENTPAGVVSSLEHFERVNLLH
Type of experiment: biochemical.

Another experiment concerns the target T2, FAAH-1 (Caenorhabditis elegans, UniProt Q17449).
T2 sequence (Q17449 15-572): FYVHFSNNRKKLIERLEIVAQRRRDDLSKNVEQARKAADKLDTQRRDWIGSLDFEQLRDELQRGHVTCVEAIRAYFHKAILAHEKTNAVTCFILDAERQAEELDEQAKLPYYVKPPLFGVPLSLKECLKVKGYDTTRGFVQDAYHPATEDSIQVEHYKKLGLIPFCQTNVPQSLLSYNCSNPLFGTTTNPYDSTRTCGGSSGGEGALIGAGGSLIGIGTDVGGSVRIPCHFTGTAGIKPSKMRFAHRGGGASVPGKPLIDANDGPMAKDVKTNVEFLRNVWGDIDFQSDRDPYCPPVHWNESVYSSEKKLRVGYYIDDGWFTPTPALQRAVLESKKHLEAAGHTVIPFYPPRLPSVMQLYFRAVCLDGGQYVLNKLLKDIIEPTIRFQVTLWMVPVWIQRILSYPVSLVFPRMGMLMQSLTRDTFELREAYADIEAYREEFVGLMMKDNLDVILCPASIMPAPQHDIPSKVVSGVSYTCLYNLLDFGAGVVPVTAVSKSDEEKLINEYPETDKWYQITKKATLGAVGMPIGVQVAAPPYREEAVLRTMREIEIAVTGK
Put plainly: MS-based competitive ABPP of worms treated in vivo. It is filed as cell-based.

As usually defined, the IC50 is the point on the concentration scale where inhibition reaches its midpoint. For `O=C(Oc1ccc([N+](=O)[O-])cc1)N1CCC(C(O)(c2ccc3c(c2)OCO3)c2ccc3c(c2)OCO3)CC1` [compound 1, JZL184], at FAAH-4, the IC50 was found to be 11 µM.
On to `NC(=O)c1cccc(-c2cccc(OC(=O)NC3CCCCC3)c2)c1` [compound 6, URB597], for which the “MS-based competitive ABPP of worms treated in vivo (50 μM)” value at FAAH-1 is “URB597 also strongly engaged C. elegans FAAH-1 in vivo”.
